Data published in article PMC3849266, “In Vitro and In Vivo Evaluation of a ^18F-Labeled High Affinity NOTA Conjugated Bombesin Antagonist as a PET Ligand for GRPR-Targeted Tumor Imaging” (PLoS ONE, 2013).
“Also recorded” adds a separate entry of the source. Read-outs that look alike come from different tables or passages of the source.

Experiments:
[1] = Labeling stability in murine serum (SDS-PAGE); assay type: in vitro ADME; conditions: 37 °C, 1 h
Experimental: The labeling stability was evaluated using SDS-PAGE analysis (200 V constant) on NuPAGE 4–12% bis-Tris gels (Invitrogen) with the aims to check the release of fluorine-18, transchelation of [^18F]AlF to serum proteins, and cleavage of labeled protein by peptidases. […] After incubation, the samples were treated with NuPAGE® LDS Sample Buffer according to the manufacturer’s instructions and finally 0.05 nmol of sample loaded on the gel. Na^18F-sodium fluoride was loaded in a separate lane as a low molecular weight internal reference.

[2] = Biodistribution and in vivo binding specificity in NMRI mice; conditions: mouse, iv, total radioactivity, male NMRI mice, 45 pmol i.v., 1 h p.i.
Excerpt: (§1) All animal studies were planned and performed in accordance with the national legislation on the protection of laboratory animals and the Ethic Committee for Animal Research of the Uppsala University approved the study plans. Randomly divided groups of 4 mice per data point were used in all experiments. […] BALB/c nu/nu male mice with PC-3 xenografts (weight 20±1 g at the time of the experiment) were used for tumor targeting and imaging studies. The tumors were grafted by subcutaneous injection of PC-3 cells (10^7 cells/mouse) into the right hind legs 3 weeks before the experiment. The average tumor size was 0.42±0.05 g at the time of the experiment.
(§2) The mice were euthanized 1 h post-injection (p.i.) by intraperitoneal administration of Ketalar-Rompun solution (10 mg/mL Ketalar and 1 mg/mL Rompun; 20 µL of solution per gram of body weight). Blood samples were collected by cardiac puncture. The organs of interest were collected, weighed and their radioactivity was measured. The organ uptake values were expressed as a percentage of the injected dose per gram of tissue (%ID/g) except for the gastrointestinal tract (GI) and carcass, which were expressed as %ID per whole sample.

murine GRPRs = target: T1, murine GRPRs (Mus musculus, UniProt P21729); test: as above; conditions: iv, total radioactivity, male NMRI mice, 45 pmol i.v., 1 h p.i.
T1 construct: from tissue; host or cells: organs of male NMRI mice, in vivo (pancreas, stomach, small intestine and others)
Excerpt: as §1, §2

[3] = Biodistribution and in vivo binding specificity in PC-3 tumor-bearing BALB/c nu/nu mice; conditions: mouse, iv, total radioactivity, male BALB/c nu/nu mice with PC-3 xenografts, 45 pmol i.v.; for tissue uptake at 1 h / tissue uptake at 6 h / tissue uptake at 3 h: male, BALB/c nu/nu; for tissue uptake at 1 h / tissue uptake dose at 1 h: 1 h p.i.; for tissue uptake at 6 h / tissue uptake dose at 6 h: 6 h p.i.; for tissue uptake at 3 h / tissue uptake dose at 3 h: 3 h p.i.
Excerpt: as §1
(§3) The mice were sacrificed at 1, 3 and 6 h p.i. to determine the uptake in tumors and other receptor-positive organs. A group of animals was co-injected with an excess of non-labeled peptide (20 nmol) and sacrificed 1 h p.i. The blood and other organs of interest were collected and treated as described above.

PC-3 xenografts = test: as above
Excerpt: as §1, §3

[4] = carcass (whole sample), read-out: Carcass uptake
[5] = carcass (whole sample), blocked (co-injected 20 nmol non-labeled peptide), read-out: Carcass uptake
[6] = gastrointestinal tract (whole sample), read-out: GI tract uptake
[7] = gastrointestinal tract (whole sample), blocked (co-injected 20 nmol non-labeled peptide), read-out: GI tract uptake
[8] = blood, blocked (co-injected 20 nmol non-labeled peptide), read-out: Blood uptake
[9] = bone, blocked (co-injected 20 nmol non-labeled peptide), read-out: Bone uptake
[10] = kidney, blocked (co-injected 20 nmol non-labeled peptide), read-out: Kidney uptake
[11] = liver, blocked (co-injected 20 nmol non-labeled peptide), read-out: Liver uptake
[12] = lung, blocked (co-injected 20 nmol non-labeled peptide), read-out: Lung uptake
[13] = muscle, blocked (co-injected 20 nmol non-labeled peptide), read-out: Muscle uptake
[14] = pancreas, blocked (co-injected 20 nmol non-labeled peptide), read-out: Pancreas uptake
[15] = small intestine, blocked (co-injected 20 nmol non-labeled peptide), read-out: Small intestine uptake
[16] = spleen, blocked (co-injected 20 nmol non-labeled peptide), read-out: Spleen uptake
[17] = stomach, blocked (co-injected 20 nmol non-labeled peptide), read-out: Stomach uptake
[18] = blood, 45 pmol, read-out: Blood uptake
[19] = bone, 45 pmol, read-out: Bone uptake
[20] = kidney, 45 pmol, read-out: Kidney uptake
[21] = liver, 45 pmol, read-out: Liver uptake
[22] = lung, 45 pmol, read-out: Lung uptake
[23] = muscle, 45 pmol, read-out: Muscle uptake
[24] = pancreas, 45 pmol, read-out: Pancreas uptake
[25] = small intestine, 45 pmol, read-out: Small intestine uptake
[26] = spleen, 45 pmol, read-out: Spleen uptake
[27] = stomach, 45 pmol, read-out: Stomach uptake
[28] = tumor (PC-3 xenograft), 45 pmol, read-out: Tumor uptake
[29] = male BALB/c nu/nu mice with PC-3 xenografts, 45 pmol i.v., 3 h p.i.

T1 sequence (P21729 whole entry): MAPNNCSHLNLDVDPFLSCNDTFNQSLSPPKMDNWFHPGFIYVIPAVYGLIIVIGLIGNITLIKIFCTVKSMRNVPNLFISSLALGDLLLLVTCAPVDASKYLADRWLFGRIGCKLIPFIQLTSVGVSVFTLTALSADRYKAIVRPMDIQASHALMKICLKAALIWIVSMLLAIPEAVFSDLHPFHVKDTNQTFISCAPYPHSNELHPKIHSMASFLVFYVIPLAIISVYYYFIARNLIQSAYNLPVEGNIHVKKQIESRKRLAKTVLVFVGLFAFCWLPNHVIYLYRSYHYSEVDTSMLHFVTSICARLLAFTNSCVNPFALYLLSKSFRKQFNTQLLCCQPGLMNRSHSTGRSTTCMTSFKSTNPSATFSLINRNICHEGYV

CC(C)C[C@H](NC(=O)C[C@H](O)[C@H](CC(C)C)NC(=O)[C@H](Cc1c[nH]cn1)NC(=O)CNC(=O)[C@@H](NC(=O)[C@H](C)NC(=O)[C@H](Cc1c[nH]c2ccccc12)NC(=O)[C@H](CCC(N)=O)NC(=O)[C@@H](Cc1ccccc1)NC(=O)COCCOCCNC(=O)CN1CCN(CC(=O)O)CCN(CC(=O)O)CC1)C(C)C)C(N)=O [[^18F]AlF-NOTA-P2-RM26]
stability in murine serum [1]: stable; also recorded: single radioactivity peak
tissue uptake dose at 1 h [2, 4]: 5 ± 2 %ID
tissue uptake dose at 1 h [2, 5]: 5 ± 1 %ID
tissue uptake dose at 1 h [2, 6]: 11 ± 3 %ID
tissue uptake dose at 1 h [2, 7]: 5 ± 1 %ID
tissue uptake at 1 h (murine GRPRs; blood, read-out: Blood uptake): 0.3 ± 0.1 %ID/g
tissue uptake at 1 h (murine GRPRs; [8]): 0.3 ± 0.1 %ID/g
tissue uptake at 1 h (murine GRPRs; bone, read-out: Bone uptake): 0.3 ± 0.2 %ID/g
tissue uptake at 1 h (murine GRPRs; [9]): 0.2 ± 0.1 %ID/g
tissue uptake at 1 h (murine GRPRs; kidney, read-out: Kidney uptake): 2.8 ± 0.5 %ID/g
tissue uptake at 1 h (murine GRPRs; [10]): 3.4 ± 0.8 %ID/g
tissue uptake at 1 h (murine GRPRs; liver, read-out: Liver uptake): 1.2 ± 0.3 %ID/g
tissue uptake at 1 h (murine GRPRs; [11]): 1.4 ± 0.4 %ID/g
tissue uptake at 1 h (murine GRPRs; lung, read-out: Lung uptake): 0.3 ± 0.2 %ID/g
tissue uptake at 1 h (murine GRPRs; [12]): 0.3 ± 0.1 %ID/g
tissue uptake at 1 h (murine GRPRs; muscle, read-out: Muscle uptake): 0.09 ± 0.03 %ID/g
tissue uptake at 1 h (murine GRPRs; [13]): 0.08 ± 0.03 %ID/g
tissue uptake at 1 h (murine GRPRs; pancreas, read-out: Pancreas uptake): 14 ± 6 %ID/g
tissue uptake at 1 h (murine GRPRs; [14]): 0.4 ± 0.1 %ID/g
tissue uptake at 1 h (murine GRPRs; small intestine, read-out: Small intestine uptake): 4 ± 2 %ID/g
tissue uptake at 1 h (murine GRPRs; [15]): 1.7 ± 0.7 %ID/g
tissue uptake at 1 h (murine GRPRs; spleen, read-out: Spleen uptake): 0.6 ± 0.3 %ID/g
tissue uptake at 1 h (murine GRPRs; [16]): 0.16 ± 0.08 %ID/g
tissue uptake at 1 h (murine GRPRs; stomach, read-out: Stomach uptake): 2 ± 1 %ID/g
tissue uptake at 1 h (murine GRPRs; [17]): 0.3 ± 0.1 %ID/g
tissue uptake at 1 h [3, 18]: 0.48 ± 0.08 %ID/g
tissue uptake at 6 h [3, 18]: 0.023 ± 0.001 %ID/g
tissue uptake at 1 h [3, 8]: 0.4 ± 0.2 %ID/g
tissue uptake at 1 h [3, 19]: 0.3 ± 0.08 %ID/g
tissue uptake at 3 h [3, 19]: 0.17 ± 0.08 %ID/g
tissue uptake at 6 h [3, 19]: 0.22 ± 0.08 %ID/g
tissue uptake at 1 h [3, 9]: 0.2 ± 0.2 %ID/g
tissue uptake at 1 h [3, 20]: 3.6 ± 0.3 %ID/g
tissue uptake at 3 h [3, 20]: 1.74 ± 0.25 %ID/g
tissue uptake at 6 h [3, 20]: 0.27 ± 0.06 %ID/g
tissue uptake at 1 h [3, 10]: 3.9 ± 0.8 %ID/g
tissue uptake at 1 h [3, 21]: 1.9 ± 0.4 %ID/g
tissue uptake at 3 h [3, 21]: 0.45 ± 0.21 %ID/g
tissue uptake at 6 h [3, 21]: 0.1 ± 0.02 %ID/g
tissue uptake at 1 h [3, 11]: 1.6 ± 0.3 %ID/g
tissue uptake at 1 h [3, 22]: 0.36 ± 0.06 %ID/g
tissue uptake at 3 h [3, 22]: 0.2 ± 0.2 %ID/g
tissue uptake at 6 h [3, 22]: 0.11 ± 0.08 %ID/g
tissue uptake at 1 h [3, 12]: 0.4 ± 0.3 %ID/g
tissue uptake at 1 h [3, 23]: 0.1 ± 0.03 %ID/g
tissue uptake at 3 h [3, 23]: 0.03 ± 0.01 %ID/g
tissue uptake at 6 h [3, 23]: 0.02 ± 0.01 %ID/g
tissue uptake at 1 h [3, 13]: 0.09 ± 0.04 %ID/g
tissue uptake at 1 h [3, 24]: 13 ± 2 %ID/g
tissue uptake at 3 h [3, 24]: 2.7 ± 0.7 %ID/g
tissue uptake at 1 h [3, 14]: 0.3 ± 0.2 %ID/g
tissue uptake at 1 h [3, 25]: 4 ± 2 %ID/g
tissue uptake at 3 h [3, 25]: 0.88 ± 0.39 %ID/g
tissue uptake at 6 h [3, 25]: 0.13 ± 0.06 %ID/g
tissue uptake at 1 h [3, 15]: 2.6 ± 0.9 %ID/g
tissue uptake at 1 h [3, 26]: 1 ± 0.2 %ID/g
tissue uptake at 3 h [3, 26]: 0.1 ± 0.03 %ID/g
tissue uptake at 6 h [3, 26]: 0.15 ± 0.08 %ID/g
tissue uptake at 1 h [3, 16]: 0.7 ± 0.2 %ID/g
tissue uptake at 1 h [3, 27]: 2.4 ± 0.4 %ID/g
tissue uptake at 3 h [3, 27]: 1.37 ± 0.35 %ID/g
tissue uptake at 6 h [3, 27]: 0.33 ± 0.08 %ID/g
tissue uptake at 1 h [3, 17]: 0.4 ± 0.1 %ID/g
tissue uptake at 1 h [3, 28]: 6.3 ± 0.9 %ID/g
tissue uptake at 3 h [3, 28]: 5.5 ± 0.7 %ID/g
tissue uptake at 6 h [3, 28]: 2.3 ± 0.7 %ID/g
tissue uptake at 1 h ([3]; tumor (PC-3 xenograft), blocked (co-injected 20 nmol non-labeled peptide), read-out: Tumor uptake): 0.8 ± 0.2 %ID/g
tissue uptake dose at 1 h [3, 4]: 6 ± 1 %ID
tissue uptake dose at 3 h [3, 4]: 3.8 ± 0.3 %ID
tissue uptake dose at 6 h [3, 4]: 0.8 ± 0.2 %ID
tissue uptake dose at 1 h [3, 5]: 4 ± 1 %ID
tissue uptake dose at 1 h [3, 6]: 6.1 ± 0.8 %ID
tissue uptake dose at 3 h [3, 6]: 5.2 ± 0.4 %ID
tissue uptake dose at 6 h [3, 6]: 3 ± 0.1 %ID
tissue uptake dose at 1 h [3, 7]: 4.8 ± 0.3 %ID
decrease of tumor uptake by co-injection of non-labeled peptide (PC-3 xenografts; PC-3 xenografted mice, 1 h p.i., 20 nmol non-labeled peptide): more than 8 fold
Stomach uptake (PC-3 xenografts; [29]): 1.4±0.4 %ID/g
Tumor uptake (PC-3 xenografts; [29]): 5.53±0.75 %ID/g
